Literature values, collected in patent US20220409549A1, “ORAL PRODUCT TABLET AND METHOD OF MANUFACTURE” (NICOVENTURES TRADING LIMITED, priority 2021, published 2022).
Like-named read-outs stand apart in the source and are kept apart here. Values belong to the molecule of their own block, whether it stands above or below them.

Legend:
[1] = for solubility: fats, alcohols, water
[2] = for logP: organic acids of Table 1, octanol and water
[3] = converts via isomerization into trans-bixin

- solubility [1]: water soluble
Molecule: CC(/C=C/C=C(C)/C=C/C(=O)O)=C\C=C\C=C(C)\C=C\C=C(C)\C=C\C(=O)O (stereo in doubt) [norbixin, (2E,4E,6E,8E,10E,12E,14E,16E,18E)-4,8,13,17-tetramethylicosa-2,4,6,8,10,12,14,16,18-nonaenedioic acid]

Molecule: C=C(C)[C@@H]1CCC(C)=C[C@H]1c1c(O)cc(CCCCC)cc1O [CBD, cannabidiol, reference compound]
- solubility in an aqueous environment (e.g., saliva) [1]: insoluble
- logP value ([2]; CBD): about 6.5

- chemical stability when isolated [3]: chemically unstable
Molecule: COC(=O)/C=C/C(C)=C\C=C\C(C)=C\C=C\C=C(C)\C=C\C=C(C)\C=C\C(=O)O [bixin]
- solubility [1]: soluble in fats and alcohols but insoluble in water

Molecule: CC(C)[C@@H]1CC[C@@H](C)C[C@H]1OC(=O)CCC(=O)O [monomenthyl succinate]
- logP [2]: 3

Molecule: CN1CCCC1c1cccnc1 (centres unmarked) [nicotine, reference compound]
- partitioning into octanol ([2]; acidic pH values, about 6.5 to about 4, protonated form): lower partitioning into octanol
- partitioning into octanol ([2]; alkaline pH values, about 7.5 to about 9, free base form): high partitioning into octanol

Molecule: ethyl benzoic acid
- logP [2]: 2.9

Molecule: isopropyl benzoic acid
- logP [2]: 3.5

Molecule: tocopherol succinate
- logP [2]: 10.2
